Laboratory results as given in US10669272B2, “Substituted naphthyridinone compounds useful as T cell activators” (BRISTOL-MYERS SQUIBB COMPANY, priority 2018, dated 2020).
Read-outs that look alike come from different tables or passages of the source.

How the values were obtained:
[1] = system: Human venous whole blood; experiment: Human whole blood IFN-γ assay; type: cell-based; settings: human whole blood, read-out: INFg Whole Blood Normalized Agonist EC50;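 further: blood from healthy donors exposed to compound for 1 h before stimulation with anti-CD3 and anti-CD28 at 1 µg/mL each, IFN-γ quantified in supernatant by AlphaLISA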
Protocol: Human Whole Blood IFN-γ Assay
Human venous whole blood (22.5 μL per well), obtained from healthy donors, was pre-treated with compounds for one hour at 37° C. in a humidified 95% air/5% CO2 incubator. The blood was stimulated with 2.5 μL anti-human CD3 and anti-CD28 mAb at a final concentration of 1 μg/mL each for 24 hours at 37° C. IFN-γ in the supernatants was measured using AlphLISA kit (Cat # AL217).

[2] = target: T1, human DGKζ (Homo sapiens, UniProt Q13574); experiment: DGKζ LIPGLO assay (extruded liposome substrate), in vitro DGK inhibition; type: biochemical; settings: read-out: DGKz LIPGLO IC50
T1 construct: TVMV protease cleavage site (C); Hexa-His (C); made in house; host or cells: Sf9 insect cells (baculovirus, Bac-to-Bac)
T1 sequence (Q13574 with tags, fused parts or gaps isoform Q13574-4): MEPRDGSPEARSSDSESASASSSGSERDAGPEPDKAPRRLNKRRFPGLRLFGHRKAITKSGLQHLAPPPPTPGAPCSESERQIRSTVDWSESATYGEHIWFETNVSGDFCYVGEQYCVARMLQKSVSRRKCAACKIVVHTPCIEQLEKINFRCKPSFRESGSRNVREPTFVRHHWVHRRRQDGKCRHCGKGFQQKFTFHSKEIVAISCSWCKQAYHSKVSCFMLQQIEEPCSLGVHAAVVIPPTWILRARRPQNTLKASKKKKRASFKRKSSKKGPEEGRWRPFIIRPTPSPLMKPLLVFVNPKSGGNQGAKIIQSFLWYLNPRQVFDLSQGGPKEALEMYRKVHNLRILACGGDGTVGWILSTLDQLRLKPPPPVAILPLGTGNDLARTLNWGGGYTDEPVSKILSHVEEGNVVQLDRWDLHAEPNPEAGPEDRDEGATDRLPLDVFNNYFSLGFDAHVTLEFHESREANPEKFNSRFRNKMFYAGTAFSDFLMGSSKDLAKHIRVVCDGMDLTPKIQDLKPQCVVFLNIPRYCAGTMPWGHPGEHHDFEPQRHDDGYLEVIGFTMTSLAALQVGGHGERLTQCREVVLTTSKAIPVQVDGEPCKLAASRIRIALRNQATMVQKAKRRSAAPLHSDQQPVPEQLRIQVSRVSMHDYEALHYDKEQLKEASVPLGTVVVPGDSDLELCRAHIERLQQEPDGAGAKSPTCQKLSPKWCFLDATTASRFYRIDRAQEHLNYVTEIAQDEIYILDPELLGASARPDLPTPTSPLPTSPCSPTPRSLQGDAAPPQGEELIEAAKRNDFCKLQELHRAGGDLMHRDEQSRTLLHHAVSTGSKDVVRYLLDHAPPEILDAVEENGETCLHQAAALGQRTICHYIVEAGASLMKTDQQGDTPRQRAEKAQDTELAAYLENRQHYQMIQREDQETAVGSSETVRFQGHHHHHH

[3] = target: T2, human DGKα (Homo sapiens, UniProt P23743); experiment: DGKα LIPGLO assay (extruded liposome substrate), in vitro DGK inhibition; type: biochemical; settings: read-out: DGKa LIPGLO IC50
T2 construct: TVMV protease cleavage site (C); Hexa-His (C); made in house; host or cells: Sf9 insect cells (baculovirus, Bac-to-Bac)
T2 sequence (P23743 with tags, fused parts or gaps): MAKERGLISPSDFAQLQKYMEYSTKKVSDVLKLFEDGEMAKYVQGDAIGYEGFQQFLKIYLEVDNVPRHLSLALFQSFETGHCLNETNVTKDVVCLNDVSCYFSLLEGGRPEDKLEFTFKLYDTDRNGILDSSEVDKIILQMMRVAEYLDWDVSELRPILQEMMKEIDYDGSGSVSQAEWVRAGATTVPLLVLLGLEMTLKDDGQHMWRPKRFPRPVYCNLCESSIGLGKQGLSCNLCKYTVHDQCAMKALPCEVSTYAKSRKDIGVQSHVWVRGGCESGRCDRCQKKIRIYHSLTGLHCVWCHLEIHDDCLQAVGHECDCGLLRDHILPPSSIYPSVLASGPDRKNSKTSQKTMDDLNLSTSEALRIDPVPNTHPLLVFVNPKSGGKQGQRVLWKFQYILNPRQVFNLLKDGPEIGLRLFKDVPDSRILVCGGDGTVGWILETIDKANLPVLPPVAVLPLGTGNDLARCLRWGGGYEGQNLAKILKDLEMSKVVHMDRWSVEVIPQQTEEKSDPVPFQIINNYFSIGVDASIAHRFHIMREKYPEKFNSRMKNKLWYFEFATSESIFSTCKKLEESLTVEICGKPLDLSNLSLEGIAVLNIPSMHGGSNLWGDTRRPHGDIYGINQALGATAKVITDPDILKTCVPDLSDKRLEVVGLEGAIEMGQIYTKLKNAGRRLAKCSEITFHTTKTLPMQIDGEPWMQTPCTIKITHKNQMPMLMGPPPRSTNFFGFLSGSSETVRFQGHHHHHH

[4] = system: naïve human CD8 T cells; experiment: Human CD8 T cells IFN-γ assay; type: cell-based; settings: read-out: HuCD8 INFG Normalized EC50;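 further: Naïve human CD8 T cells stimulated with plate-bound anti-CD3 and soluble anti-CD28, IFN-γ in supernatant quantified by AlphaLISA and converted to pg/mL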
[5] = Homo sapiens, 24 h, normalized to 3 μM reference compound with anti-CD3 plus anti-CD28 as 100% activation
[6] = Homo sapiens, T-cell, 20 h, normalized to 3 μM reference compound with anti-CD3 plus anti-CD28 as 100% activation
[7] = normalized to 3 μM reference compound with anti-CD3 plus anti-CD28 as 100% activation
[8] = Homo sapiens, 24 h, anti-CD3 plus anti-CD28, 24 hours, 3 μM reference compound = 100% activation
[9] = Homo sapiens, T-cell, 20 h, naïve human CD8 T cells, anti-CD3 plus anti-CD28, 3 μM reference compound = 100% activation
[10] = anti-CD3 plus anti-CD28, 24 hours, 3 μM reference compound = 100% activation
[11] = naïve human CD8 T cells, anti-CD3 plus anti-CD28, 3 μM reference compound = 100% activation

Row | Structure (SMILES) | EC50 [1, 5] | IC50 ([2]; liposome (LIPGLO) assay) | IC50 ([3]; liposome (LIPGLO) assay) | EC50 [4, 6] | IC50 ([2]; DGKζ liposome (LIPGLO) assay) | IC50 ([3]; DGKα liposome (LIPGLO) assay) | further results
1 | C[C@@H]1CN(c2cc(=O)n(C)c3ccc(C#N)nc23)[C@@H](C)CN1Cc1cccc(F)c1 [Example 292, 8-[(2S,5R)-4-[(3-fluorophenyl)methyl]-2,5-dimethylpiperazin-1-yl]-5-methyl-6-oxo-5,6-dihydro-1,5-naphthyridine-2-carbonitrile] | 2200 nM | 3000 nM | 280 nM | 1700 nM |  |  | 
2 | C[C@@H]1CN(c2cc(=O)n(C)c3ccc(C#N)nc23)[C@@H](C)CN1C(c1ccc(F)cc1)c1ccc(C(F)(F)F)cc1 (stereo partly drawn) [Example 294, 8-[(2S,5R)-4-[(4-fluorophenyl)[4-(trifluoromethyl)phenyl]methyl]-2,5-dimethylpiperazin-1-yl]-5-methyl-6-oxo-5,6-dihydro-1,5-naphthyridine-2-carbonitrile] | 560 nM | 330 nM | 190 nM | 20 nM |  |  | 
3 | Cc1ccc(C(c2ccc(F)cc2)N2C[C@H](C)N(c3cc(=O)n(C)c4ccc(C#N)nc34)C[C@H]2C)cc1 (stereo partly drawn) [Example 295, 8-[(2S,5R)-4-[(4-fluorophenyl)(4-methylphenyl)methyl]-2,5-dimethylpiperazin-1-yl]-5-methyl-6-oxo-5,6-dihydro-1,5-naphthyridine-2-carbonitrile] | 640 nM | 1300 nM | 1800 nM | 200 nM |  |  | 
4 | C[C@@H]1CN(c2cc(=O)n(C)c3ccc(C#N)nc23)[C@@H](C)CN1C(c1ccccc1)c1cccc(F)c1 (stereo partly drawn) [Example 296, 8-[(2S,5R)-4-[(3-fluorophenyl)(phenyl)methyl]-2,5-dimethylpiperazin-1-yl]-5-methyl-6-oxo-5,6-dihydro-1,5-naphthyridine-2-carbonitrile] | 1200 nM | 900 nM | 630 nM | 400 nM |  |  | 
5 | C[C@@H]1CN(c2cc(=O)n(C)c3ccc(C#N)nc23)[C@@H](C)CN1Cc1ccc(F)cc1 [Example 297, 8-[(2S,5R)-4-[(4-fluorophenyl)methyl]-2,5-dimethylpiperazin-1-yl]-5-methyl-6-oxo-5,6-dihydro-1,5-naphthyridine-2-carbonitrile] | 1500 nM | 740 nM | 15 nM | 490 nM |  |  | 
6 | C[C@@H]1CN(c2cc(=O)n(C)c3ccc(C#N)nc23)[C@@H](C)CN1C(c1ccc(Cl)cc1)c1ccc(C#N)cc1 (stereo partly drawn) [Example 298, 8-((2S,5R)-4-((4-chlorophenyl)(4-cyanophenyl)methyl)-2,5-dimethylpiperazin-1-yl)-5-methyl-6-oxo-5,6-dihydro-1,5-naphthyridine-2-carbonitrile] | 570 nM | 2400 nM | 1500 nM | 29 nM |  |  | 
7 | Cc1ccc(C(c2ccc(Cl)cc2)N2C[C@H](C)N(c3cc(=O)n(C)c4ccc(C#N)nc34)C[C@H]2C)cc1 (stereo partly drawn) [Example 299, 8-[(2S,5R)-4-[(4-chlorophenyl)(4-methylphenyl)methyl]-2,5-dimethylpiperazin-1-yl]-5-methyl-6-oxo-5,6-dihydro-1,5-naphthyridine-2-carbonitrile] | 650 nM | 1100 nM | 1700 nM | 17 nM |  |  | 
8 | C[C@@H]1CN(c2cc(=O)n(C)c3ccc(C#N)nc23)[C@@H](C)CN1C(c1ccc(F)cc1)c1ccc(Cl)cc1 (stereo partly drawn) [Example 300, 8-[(2S,5R)-4-[(4-chlorophenyl)(4-fluorophenyl)methyl]-2,5-dimethylpiperazin-1-yl]-5-methyl-6-oxo-5,6-dihydro-1,5-naphthyridine-2-carbonitrile] | 120 nM | 1000 nM | 890 nM | 21 nM |  |  | 
9 | C[C@@H]1CN(c2c(F)c(=O)n(C)c3ccc(C#N)nc23)[C@@H](C)CN1C(c1ccc(F)cc1)c1ccc(C#N)cc1 (stereo partly drawn) [Example 327, 8-((2S,5R)-4-((4-cyanophenyl)(4-fluorophenyl)methyl)-2,5-dimethylpiperazin-1-yl)-7-fluoro-5-methyl-6-oxo-5,6-dihydro-1,5-naphthyridine-2-carbonitrile] | 700 nM | 4900 nM | 3200 nM |  |  |  | EC50 [4, 7]: 1200 nM
10 | C[C@@H]1CN(c2c(F)c(=O)n(C)c3ccc(C#N)nc23)[C@@H](C)CN1C(c1ccc(F)cc1)c1ccc(C#N)cc1 (stereo partly drawn) [Example 328, 8-((2S,5R)-4-((4-cyanophenyl)(4-fluorophenyl)methyl)-2,5-dimethylpiperazin-1-yl)-7-fluoro-5-methyl-6-oxo-5,6-dihydro-1,5-naphthyridine-2-carbonitrile] |  | 2600 nM | 1200 nM |  |  |  | EC50 [1, 7]: 1000 nM; EC50 [4, 7]: 6000 nM
11 | [2H]C([2H])(c1c(F)cc(F)cc1F)N1C[C@H](C)N(c2cc(=O)n(C)c3ccc(C#N)nc23)C[C@H]1C [Example 430, 8-((2S,5R)-2,5-dimethyl-4-((2,4,6-trifluorophenyl)methyl-d2)piperazin-1-yl)-5-methyl-6-oxo-5,6-dihydro-1,5-naphthyridine-2-carbonitrile] | 500 nM | 2000 nM | 410 nM | 46 nM |  |  | 
12 | C[C@@H]1CN(c2cc(=O)n(C)c3ccc(C#N)nc23)[C@@H](C)CN1C(c1ccc(Cl)cc1)c1cccc2c1OCCO2 (stereo partly drawn) [Example 447, 8-((2S,5R)-4-((4-chlorophenyl)(2,3-dihydrobenzo[b][1,4]dioxin-5-yl)methyl)-2,5-dimethylpiperazin-1-yl)-5-methyl-6-oxo-5,6-dihydro-1,5-naphthyridine-2-carbonitrile] | 600 nM | 290 nM | 7700 nM | 50 nM |  |  | 
13 | Cc1ccc(C(c2cccc(C)n2)N2C[C@H](C)N(c3cc(=O)n(C)c4ccc(C#N)nc34)C[C@H]2C)cc1 (stereo partly drawn) [Example 450, 8-((2S,5R)-2,5-dimethyl-4-((6-methylpyridin-2-yl)(p-tolyl)methyl)piperazin-1-yl)-5-methyl-6-oxo-5,6-dihydro-1,5-naphthyridine-2-carbonitrile] | 280 nM | 290 nM | 2600 nM | 70 nM |  |  | 
14 | Cc1ccc(C(c2cccc(F)n2)N2C[C@H](C)N(c3cc(=O)n(C)c4ccc(C#N)nc34)C[C@H]2C)cc1 (stereo partly drawn) [Example 476, 8-((2S,5R)-4-((6-fluoropyridin-2-yl)(p-tolyl)methyl)-2,5-dimethylpiperazin-1-yl)-5-methyl-6-oxo-5,6-dihydro-1,5-naphthyridine-2-carbonitrile] | 630 nM | 300 nM | 940 nM | 160 nM |  |  | 
15 | C[C@@H]1CN(c2cc(=O)n(C)c3ccc(C#N)nc23)[C@@H](C)CN1C(c1ccc(F)cc1)c1cccc2c1OC(F)(F)O2 (stereo partly drawn) [Example 668] | 600 nM | 3100 nM | 120000 nM |  |  |  | EC50 [4, 7]: 35 nM
16 | C[C@@H]1CN(c2cc(=O)n(C)c3ccc(C#N)nc23)[C@@H](C)CN1C(c1ccc(F)cc1)c1cccc2c1OC(F)(F)O2 (stereo partly drawn) [Example 669] |  | 4800 nM | 140000 nM |  |  |  | EC50 [1, 7]: 860 nM; EC50 [4, 7]: 96 nM
17 | C[C@@H]1CN(c2cc(=O)n(C)c3ccc(C#N)nc23)[C@@H](C)CN1C(c1ccc(F)cc1)c1nc(C(C)(C)C)no1 (stereo partly drawn) [Example 737] |  |  |  |  | 130 nM | 1100 nM | EC50 [1, 8]: 43 nM; EC50 [4, 9]: 0.31 nM
18 | Cc1ccc(C(c2ccc(C)cc2)N2C[C@H](C)N(c3c(C#N)c(=O)n(C)c4ccc(C#N)nc34)C[C@H]2C)cc1 [Example 806] |  |  |  |  | 390 nM | 6300 nM | EC50 [1, 8]: 690 nM; EC50 [4, 9]: 18 nM
19 | Cc1ccc(C(c2ccc(F)cn2)N2C[C@H](C)N(c3c(C#N)c(=O)n(C)c4ccc(C#N)nc34)C[C@H]2C)cc1 (stereo partly drawn) [Example 833] |  |  |  |  | 2800 nM | 2000 nM | EC50 [1, 8]: 680 nM; EC50 [4, 9]: 320 nM
20 | Cc1ccc(C(c2ccc(F)cc2)N2CCN(c3c(C#N)c(=O)n(C)c4ccc(C#N)nc34)C[C@H]2C)cc1 (stereo partly drawn) [Example 889] |  |  |  |  | 370 nM | 1300 nM | EC50 [1, 10]: 670 nM; EC50 [4, 9]: 220 nM
21 | C[C@@H]1CN(c2c(C#N)c(=O)n(C)c3ccc(C#N)nc23)CCN1C(c1ccc(F)cc1)c1ccc(F)cn1 (stereo partly drawn) [Example 903] |  |  |  |  | 3500 nM | 630 nM | EC50 [1, 10]: 730 nM; EC50 [4, 9]: 140 nM
22 | C[C@@H]1CN(c2c(C#N)c(=O)n(C)c3ccc(C#N)nc23)CCN1C(c1cccc(Cl)c1)c1ccc(F)cn1 (stereo partly drawn) [Example 927] |  |  |  |  | 1600 nM | 2600 nM | EC50 [1, 10]: 800 nM; EC50 [4, 9]: 300 nM
23 | C[C@@H]1CN(c2c(C#N)c(=O)n(C)c3ccc(C#N)nc23)CCN1C(c1ccc(F)cc1)c1ccc(Cl)cn1 (stereo partly drawn) [Example 932] |  |  |  |  | 1200 nM | 150 nM | EC50 [1, 8]: 310 nM; EC50 [4, 11]: 52 nM
24 | C[C@@H]1CN(c2c(C#N)c(=O)n(C)c3ccc(C#N)nc23)CCN1C(c1ccc(F)cc1)c1ccc(Cl)cn1 (stereo partly drawn) [Example 933] |  |  |  |  | 1000 nM | 200 nM | EC50 [1, 10]: 550 nM; EC50 [4, 11]: 350 nM
